Source: patent US8088918B2, “Noncardiotoxic pharmaceutical compounds” (Williamsburg Holdings LLC, priority 2004, dated 2012)

Experiments:
[1] = parent drugs; cited from earlier work
[2] = target: CYP2D6 (Homo sapiens, UniProt P10635); test: Metabolic stability in the presence of CYP2D6 isozyme; assay type: in vitro ADME; design: purchased BD Gentest (Woburn, Mass.); conditions: 10 μm compound
Experimental: (§1) The metabolic stability of each compound prepared in Examples 1-5 was assessed in the presence of CYP2D6 and CYP3A4 obtained from BD Gentest (Woburn, Mass.).
(§2) The metabolic stability of each compound prepared in Examples 1-5 was assessed in duplicate by incubation of 10 μm compound with recombinant human CYP2D6 and 3A4 using similar conditions to those in Example 9. Samples were removed for analysis at 0, 30 and 60 minutes and extracted with one volume of organic solvent. Appropriate controls were included. Quantification of the disappearance of the prodrug was conducted LC-MS. Appearance of metabolites was also monitored.

[3] = Stability testing in simulated intestinal fluids; conditions: 10 μM
[4] = target: T1, recombinant human CYP3A4 (Homo sapiens, UniProt P08684); test: Metabolic stability in the presence of CYP3A4 isozyme; assay type: in vitro ADME; conditions: 10 μm compound
T1 construct: purchased BD Gentest (Woburn, Mass.)
T1 sequence (P08684 whole entry): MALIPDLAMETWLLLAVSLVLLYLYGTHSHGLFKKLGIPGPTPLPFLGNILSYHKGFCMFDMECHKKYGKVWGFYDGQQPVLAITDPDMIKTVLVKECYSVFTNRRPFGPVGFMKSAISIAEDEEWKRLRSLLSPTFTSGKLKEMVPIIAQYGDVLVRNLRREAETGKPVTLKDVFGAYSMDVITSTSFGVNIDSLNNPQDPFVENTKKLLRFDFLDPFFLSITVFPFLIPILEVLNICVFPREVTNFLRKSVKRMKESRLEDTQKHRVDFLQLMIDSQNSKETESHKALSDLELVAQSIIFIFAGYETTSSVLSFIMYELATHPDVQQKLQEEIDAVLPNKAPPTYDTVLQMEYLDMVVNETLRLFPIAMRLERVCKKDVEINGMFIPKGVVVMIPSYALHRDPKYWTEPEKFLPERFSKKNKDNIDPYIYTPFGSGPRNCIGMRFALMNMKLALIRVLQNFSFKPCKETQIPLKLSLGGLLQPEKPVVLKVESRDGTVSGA
Experimental: as §1, §2

[5] = Stability testing in simulated gastric fluids; conditions: 10 μM, saline pH approximately 1 plus pepsin
[6] = Metabolic stability, microsomal incubations without inhibitor; assay type: in vitro ADME; conditions: 10 μM, 0.5 mg/mL microsomal protein
Experimental: (§3) The metabolic stability of each compound prepared in Examples 1-5 was assessed in microsomal preparations obtained from BD Gentest (Woburn, Mass.).
(§4) The metabolic stability of each compound prepared in Examples 1-5 was assessed in duplicate by incubation of 10 μM compound with 0.5 mg/mL microsomal protein, 1 mM in 0.1 M phosphate buffer, pH 7.4 in the presence and absence of a CYP3A4 inhibitor (ketoconazole). The reaction mixture was pre-incubated, in the absence of the microsomes, at ca. 37° C. for 5 minutes, followed by initiation of the incubation by the addition of microsomal protein and maintained at ca. 37° C. for a further 0, 30 and 60 minutes. After the appropriate incubation time, the mixtures were quenched by the addition of one volume of acetonitrile and the supernatant was isolated by centrifugation. Positive control incubations (7-ethoxycoumarin) were performed in the same manner as the compounds from Examples 1-5 and quenched after 0 and 30 minutes. In addition, negative control incubations were performed for 60 minutes in the absence of NADPH to assess chemical stability.
(§5) Analysis of supernatants from each time interval was conducted for each compound prepared in Examples 1-5 by LC-MS analysis. Quantification of the disappearance on the parent drug was achieved by comparison of the sample response to that of a suitable standard curve constructed in 0.1 M phosphate buffer, pH 7.4. The standard curve ranged between ≦1% up to ≧100% of the dosing concentration.
(§6) The % turnover following 60 minutes of incubation was calculated by comparison of the parent concentration to that at 0 minutes. The % degradation was calculated in the same manner from the negative control incubations. Appearance of the parent drug and the hydroxymetabolites were also monitored at each time interval.

[7] = Stability testing of prodrugs in rat plasma (elevated esterase activity); assay type: in vitro ADME, Sprague-Dawley rat; conditions: 10 μM, ca. 37° C.
Experimental: (§7) Sprague-Dawley rat plasma was obtained by collection into sodium EDTA as the anticoagulant, and was stored at ca −20° C. prior to use. Prior to use, the plasma defrosted and was spun at ca. 3000 rpm for 5 minutes to remove any precipitate. The pH of the plasma was adjusted to pH 7.4 by careful addition of NaH2PO4 buffer.
(§8) Plasma stability was assessed by incubation of 10 μM of each compound prepared in Examples 1-5 with rat plasma, in duplicate, at ca. 37° C. with shaking. Each compound prepared in Examples 1-5 was also incubated at 10 μM in PBS as a control for compound heat stability. Aliquots were removed at 0, 0.5, 1 and 2 hours and stored at −20° C. until analysis.
(§9) For analysis, plasma samples were extracted in 1 part acetonitrile and isolation of the supernatant. Analysis of each compound prepared in Examples 1-5 in plasma extracts was conducted by an LC-MS method at each time interval and quantification was achieved by comparison of the response due to the sample to that of a three point standard curve. Appearance of the parent drug and the hydroxymetabolites were also monitored at each time interval. The % degradation following incubation at each time point was calculated by comparison of the parent concentration to that at 0 minutes.

[8] = Stability testing of prodrugs in human plasma; assay type: in vitro ADME; conditions: 10 μM, ca. 37° C.
Experimental: as §7, with “Pooled human” for “Sprague-Dawley rat”, “obtained from Bioreclamation (East Meadow, N.Y.)” for “obtained”
as §8, with “human” for “rat”
as §9, with “drug” for “drug and”

[9] = Metabolic stability, microsomal incubations with ketoconazole (CYP3A4 inhibitor); assay type: in vitro ADME; conditions: 10 μM, 0.5 mg/mL microsomal protein
Experimental: as §3, §4, §5, §6

CYP2D6, sequence (P10635 whole entry): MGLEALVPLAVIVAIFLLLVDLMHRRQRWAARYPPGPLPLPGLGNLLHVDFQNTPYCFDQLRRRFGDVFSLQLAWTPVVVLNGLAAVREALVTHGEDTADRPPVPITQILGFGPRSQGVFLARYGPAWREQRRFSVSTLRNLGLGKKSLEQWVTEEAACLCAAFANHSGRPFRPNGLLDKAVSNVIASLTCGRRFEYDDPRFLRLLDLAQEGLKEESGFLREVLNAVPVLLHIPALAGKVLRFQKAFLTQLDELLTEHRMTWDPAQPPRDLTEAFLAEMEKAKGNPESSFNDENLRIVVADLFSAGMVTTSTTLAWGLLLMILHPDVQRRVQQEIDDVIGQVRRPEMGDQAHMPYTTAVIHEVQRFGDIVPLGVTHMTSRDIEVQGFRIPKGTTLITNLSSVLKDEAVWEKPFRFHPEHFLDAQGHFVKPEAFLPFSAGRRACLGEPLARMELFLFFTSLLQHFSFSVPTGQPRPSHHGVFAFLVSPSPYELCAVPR

CN(C)CCC=C1c2ccccc2COc2ccccc21 (mixture of isomers) [doxepin, Doxepin]
pKa [1]: 8.00

CCOP(=O)(OCC)N(C)CCCN1c2ccccc2CCc2ccccc21 [RIC-02, [3-(10,11-Dihydro-dibenzo[b,f]azepin-5-yl)-propyl]-methyl-phosphoramidic acid diethyl ester]
Loss of parent compound with CYP2D6 isozyme (%) ([2]; incubation time 0 min): 0.00%
Loss of parent compound with CYP2D6 isozyme (%) ([2]; incubation time 30 min): 13.19%
Loss of parent compound with CYP2D6 isozyme (%) ([2]; incubation time 60 min): 37.11%
Loss of parent compound in simulated intestinal fluid (%) ([3]; phosphate pH 6, incubation time 0 min): 0.00%
Loss of parent compound in simulated intestinal fluid (%) ([3]; phosphate pH 6, incubation time 30 min): 11.65%
Loss of parent compound in simulated intestinal fluid (%) ([3]; phosphate pH 6, incubation time 60 min): 7.83%
Loss of parent compound in simulated intestinal fluid (%) ([3]; phosphate pH 6, incubation time 120 min): 9.29%
Loss of parent compound with CYP3A4 isozyme (%) ([4]; incubation time 0 min): 0.00%
Loss of parent compound with CYP3A4 isozyme (%) ([4]; incubation time 30 min): 97.05%
Loss of parent compound with CYP3A4 isozyme (%) ([4]; incubation time 60 min): 98.62%
Loss of parent compound in simulated gastric fluid (%) ([5]; incubation time 0 min): 0.00%
Loss of parent compound in simulated gastric fluid (%) ([5]; incubation time 30 min): 49.94%
Loss of parent compound in simulated gastric fluid (%) ([5]; incubation time 60 min): 74.67%
Loss of parent compound in simulated gastric fluid (%) ([5]; incubation time 120 min): 93.12%
Loss of parent compound with no ketoconazole (%) ([6]; incubation time 30 min): 76.17%
Loss of parent compound with no ketoconazole (%) ([6]; incubation time 60 min): 91.40%
Loss of parent compound in rat plasma (%) ([7]; incubation time 0 min): 0.00%
Loss of parent compound in rat plasma (%) ([7]; incubation time 30 min): 4.67%
Loss of parent compound in rat plasma (%) ([7]; incubation time 60 min): 11.01%
Loss of parent compound in rat plasma (%) ([7]; incubation time 120 min): 9.02%
Loss of parent compound in human plasma (%) ([8]; incubation time 0 min): 0.00%
Loss of parent compound in human plasma (%) ([8]; incubation time 30 min): −.43%
Loss of parent compound in human plasma (%) ([8]; incubation time 60 min): 9.94%
Loss of parent compound in human plasma (%) ([8]; incubation time 120 min): 7.93%
Loss of parent compound with ketoconazole (%) ([9]; incubation time 30 min): −17.26%
Loss of parent compound with ketoconazole (%) ([9]; incubation time 60 min): 11.04%

CN(C)CCc1c[nH]c2ccc(C[C@H]3COC(=O)N3)cc12 [Zolmitriptan]
pKa [1]: 9.52

CNCCC(Oc1ccccc1C)c1ccccc1 (stereo not drawn) [atomoxetine, Atomoxetine]
pKa [1]: 10.12

CN(C)CCOC(C)(c1ccccc1)c1ccc(Cl)cc1 (stereo not drawn) [chlorphenoxamine, Chlorphenoxamine]
pKa [1]: 8.21

COc1cc(N)c(Cl)cc1C(=O)NC1CCN(CCCOc2ccc(F)cc2)CC1OC (stereo not drawn) [cisapride, Cisapride]
pKa [1]: 7.04

CN1CCC[C@@H]1CCO[C@](C)(c1ccccc1)c1ccc(Cl)cc1 [clemastine]
pKa [1]: 10.23

CN(C)CCCN1c2ccccc2CCc2ccc(Cl)cc21 [clomipramine]
pKa [1]: 9.50

CN1CCN(C2=Nc3cc(Cl)ccc3Nc3ccccc32)CC1 [clozapine, Clozapine]
pKa [1]: 8.20

CN1CCN(C(c2ccccc2)c2ccccc2)CC1 [cyclizine]
pKa [1]: 8.35

CN(C)CCC=C1c2ccccc2C=Cc2ccccc21 [cyclobenzaprine, Cyclobenzaprine]
pKa [1]: 9.21

CN1CCC[C@@H]1Cc1c[nH]c2ccc(CCS(=O)(=O)c3ccccc3)cc12 [eletriptan, Eletriptan]
pKa [1]: 10.13

CN(C)CCC[C@@]1(c2ccc(F)cc2)OCc2cc(C#N)ccc21 [escitalopram, Escitalopram]
pKa [1]: 9.60

COc1ccc(OCC2CN(C)CCC2c2ccccc2)cc1 (stereo not drawn) [femoxetine, Femoxetine]
pKa [1]: 9.00

CN[C@@H]1CCc2[nH]c3ccc(C(N)=O)cc3c2C1 [frovatriptan, Frovatriptan]
pKa [1]: 10.63

CNCCCC12CCC(c3ccccc31)c1ccccc12 [maprotiline]
pKa [1]: 10.20

Cc1cccc(CN2CCN(C(c3ccccc3)c3ccc(Cl)cc3)CC2)c1 (stereo not drawn) [meclizine]
pKa [1]: 7.32

COc1c(N2C[C@@H]3CCCN[C@@H]3C2)c(F)cc2c(=O)c(C(=O)O)cn(C3CC3)c12 [moxifloxacin]
pKa [1]: 10.01

CCc1nn(CCCN2CCN(c3cccc(Cl)c3)CC2)c(=O)n1CCOc1ccccc1 [nefazodone]
pKa [1]: 7.90

COc1cc(N)c(Cl)cc1C(=O)NC1CCNCC1OC (stereo not drawn) [norcisapride]
pKa [1]: 8.46

Fc1ccc(-n2cc(C3CCNCC3)c3cc(Cl)ccc32)cc1 [norsertindole]
pKa [1]: 10.61

CC1COc2c(N3CCN(C)CC3)c(F)cc3c(=O)c(C(=O)O)cn1c23 (stereo not drawn) [ofloxacin]
pKa [1]: 7.09

O=C1NC(=O)C(c2ccccc2)(c2ccccc2)N1 [phenytoin]
pKa [1]: 8.31

CC(N)C12CC3CC(CC(C3)C1)C2 (stereo not drawn) [rimantadine]
pKa [1]: 11.70

CN(C)CCc1c[nH]c2ccc(Cn3cncn3)cc12 [rizatriptan]
pKa [1]: 9.49

O=C1NCCN1CCN1CCC(c2cn(-c3ccc(F)cc3)c3ccc(Cl)cc23)CC1 [sertindole, Sertindole]
pKa [1]: 9.06

CC(C)(C)c1ccc(C(O)CCCN2CCC(C(O)(c3ccccc3)c3ccccc3)CC2)cc1 (stereo not drawn) [terfenadine, Terfenadine]
pKa [1]: 9.60

CN1CCN(CCCN2c3ccccc3Sc3ccc(C(F)(F)F)cc32)CC1 [trifluoperazine]
pKa [1]: 7.98

O=C1Cc2cc(CCN3CCN(c4nsc5ccccc45)CC3)c(Cl)cc2N1 [ziprasidone]
pKa [1]: 8.24
